Source: US9573913B2, “Cathepsin cysteine protease inhibitors” (Merck Sharp & Dohme Corp., priority 2013, dated 2017)

Tests used:
human cathepsin F = target: T1, human cathepsin F (Homo sapiens, UniProt Q9UBX1); test: Cathepsin F assay (hCat F); format: biochemical; settings: Z-Phe-Arg-AMC substrate, pH 5.5, 15 min preincubation; read-out: hCat F (IP (nM))
T1 sequence (Q9UBX1 271-484): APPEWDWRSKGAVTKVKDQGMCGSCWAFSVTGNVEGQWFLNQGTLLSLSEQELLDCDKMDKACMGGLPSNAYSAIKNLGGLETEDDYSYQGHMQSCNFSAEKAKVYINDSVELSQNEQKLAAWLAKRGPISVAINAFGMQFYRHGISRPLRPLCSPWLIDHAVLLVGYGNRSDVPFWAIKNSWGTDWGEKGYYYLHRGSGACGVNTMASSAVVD
In short: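 Enzyme (10 nM) was preincubated 15 min at room temperature with compounds (1/3 DMSO dilution series, 500–0.025 μM) in 50 mM MES pH 5.5, 2.5 mM EDTA, 2.5 mM DTT, 10% DMSO. Z-Phe-Arg-AMC (8 μM) was added and AMC fluorescence (Ex 360/Em 460 nm) followed for 20 min. % inhibition was fitted to dose-response curves.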

human cathepsin K = human cathepsin K (UniProt P43236); test: Cathepsin K Assay (hrbCat K); format: biochemical; settings: Z-Leu-Arg-AMC substrate, pH 5.5, 15 min preincubation; read-out: hrbCat K (IP (nM))
In short: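 Human cathepsin K (0.4 nM) was preincubated 15 min at room temperature with compound in 50 mM MES pH 5.5, 2.5 mM EDTA, 2.5 mM DTT and 10% DMSO. Inhibition was fitted to a dose-response model.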

| SMILES | IC50 (human cathepsin F) | IC50 (human cathepsin K) |
| --- | --- | --- |
| N#CC1(NC(=O)[C@@H]2CCCC[C@H]2c2nc(N3CCCCC3)sc2-c2ccc(N3CCS(=O)(=O)CC3)cc2)CC1 [Example 89, (1R,2R)-N-(1-cyanocyclopropyl)-2-(5-(4-(1,1-dioxidothiomorpho-lino)phenyl)-2-(piperidin-1-yl)thiazol-4-yl)cyclohexane-carboxamide] | 1000 nM | 3 nM |
| N#CC1(NC(=O)[C@@H]2CCCC[C@H]2c2nc(-c3ccc(C(F)(F)F)cn3)sc2-c2ccc(N3CCS(=O)(=O)CC3)cc2)CC1 [Example 90, (1R,2R)-N-(1-cyanocyclopropyl)-2-(5-(4-(1,1-dioxidothiomorpho-lino)phenyl)-2-(5-(trifluoromethyl)pyridin-2-yl)thiazol-4-yl)cyclohexane-carboxamide] | 1280 nM | 2.2 nM |
| CC1(C)CC(c2nc([C@@H]3CCCC[C@H]3C(=O)NC3(C#N)CC3)c(-c3ccc(N4CCS(=O)(=O)CC4)cc3)s2)CC(C)(C)O1 [Example 93, (1R,2R)-N-(1-cyanocyclopropyl)-2-(5-(4-(1,1-dioxidothiomorpho-lino)phenyl)-2-(2,2,6,6-tetramethyltetrahydro-2H-pyran-4-yl)thiazol-4-yl)cyclohexane-carboxamide] | ≥ 10000 nM | 14.1 nM |
| N#CC1(NC(=O)[C@@H]2CCCC[C@H]2c2nc(-c3c(F)cccc3F)sc2-c2ccc(N3CCS(=O)(=O)CC3)cc2)CC1 [Example 94, (1R,2R)-N-(1-cyanocyclopropyl)-2-(2-(2,6-difluorophenyl)-5-(4-(1,1-dioxidothiomorpho-lino)phenyl)thiazol-4-yl)cyclohexane-carboxamide] | ≥ 10000 nM | 5.5 nM |
| COc1cncc(F)c1-c1nc([C@@H]2CCCC[C@H]2C(=O)NC2(C#N)CC2)c(-c2ccc(N3CCS(=O)(=O)CC3)cc2)s1 [Example 97, (1R,2R)-N-(1-cyanocyclopropyl)-2-(5-(4-(1,1-dioxidothiomorpho-lino)phenyl)-2-(3-fluoro-5-methoxypyridin-4-yl)thiazol-4-yl)cyclohexane-carboxamide] | 3080 nM | 2.8 nM |
| N#CC1(NC(=O)[C@@H]2CCCC[C@H]2c2nc(-c3cnc(C(F)(F)F)nc3)sc2-c2ccc(N3CCS(=O)(=O)CC3)cc2)CC1 [Example 98, (1R,2R)-N-(1-cyanocyclopropyl)-2-(5-(4-(1,1-dioxidothiomorpho-lino)phenyl)-2-(2-(trifluoromethyl)pyrimidin-5-yl)thiazol-4-yl)cyclohexane-carboxamide] | 1600 nM | 0.6 nM |
| N#CC1(NC(=O)[C@@H]2CCCC[C@H]2c2nc(-c3cnc(C4CC4)c(F)c3)sc2-c2ccc(N3CCS(=O)(=O)CC3)cc2)CC1 [Example 99, (1R,2R)-N-(1-cyanocyclopropyl)-2-(2-(6-cyclopropyl-5-fluoropyridin-3-yl)-5-(4-(1,1-dioxidothiomorpho-lino)phenyl)thiazol-4-yl)cyclohexane-carboxamide] | 3330 nM | 1.7 nM |
| N#CC1(NC(=O)[C@@H]2CCCC[C@H]2c2nc(N3CCOC(c4ccccc4)C3)sc2-c2ccc(N3CCS(=O)(=O)CC3)cc2)CC1 (stereo partly drawn) [Example 103, (1R,2R)-N-(1-cyanocyclopropyl)-2-(5-(4-(1,1-dioxidothiomorpho-lino)phenyl)-2-(2-phenylmorpholino)thiazol-4-yl)cyclohexane-carboxamide] | 1000 nM | 1.2 nM |
| N#CC1(NC(=O)[C@@H]2CCCC[C@H]2c2nc(N3CCCC(F)(F)C3)sc2-c2ccc(N3CCS(=O)(=O)CC3)cc2)CC1 [Example 106, (1R,2R)-N-(1-cyanocyclopropyl)-2-(2-(3,3-difluoropiperidin-1-yl)-5-(4-(1,1-dioxidothiomorpho-lino)phenyl)thiazol-4-yl)cyclohexane-carboxamide] | ≥ 10000 nM | 2.9 nM |
| N#CC1(NC(=O)[C@@H]2CCCC[C@H]2c2nc(-c3cccc(C4CCOCC4)c3)sc2-c2ccc(N3CCS(=O)(=O)CC3)cc2)CC1 [Example 110, (1R,2R)-N-(1-cyanocyclopropyl)-2-(5-(4-(1,1-dioxidothiomorpho-lino)phenyl)-2-(3-(tetrahydro-2H-pyran-4-yl)phenyl)thiazol-4-yl)cyclohexane-carboxamide] | 3330 nM | 1.7 nM |
| COc1ccc(-c2nc([C@@H]3CC[C@H](F)C[C@H]3C(=O)NC3(C#N)CC3)c(-c3ccc(N4CCS(=O)(=O)CC4)cc3)s2)nc1 [Example 114, (1R,2R,5S)-N-(1-cyanocyclopropyl)-2-(5-(4-(1,1-dioxidothiomorpho-lino)phenyl)-2-(5-methoxypyridin-2-yl)thiazol-4-yl)-5-fluorocyclohexane-carboxamide] | 1000 nM | 1.1 nM |

More lines, now with the values ahead:

| IC50 (human cathepsin F) | IC50 (human cathepsin K) | SMILES |
| --- | --- | --- |
| 3330 nM | 1.8 nM | COc1ccc(-c2nc([C@@H]3CCCC[C@H]3C(=O)NC3(C#N)CC3)c(-c3ccc(N4CCS(=O)(=O)CC4)cc3)s2)cn1 [Example 86, (1R,2R)-N-(1-cyanocyclopropyl)-2-(5-(4-(1,1-dioxidothiomorpho-lino)phenyl)-2-(6-methoxypyridin-3-yl)thiazol-4-yl)cyclohexane-carboxamide] |
| 7780 nM | 6.7 nM | N#Cc1cc(Cl)ccc1-c1nc([C@@H]2CCCC[C@H]2C(=O)NC2(C#N)CC2)c(-c2ccc(N3CCS(=O)(=O)CC3)cc2)s1 [Example 87, (1R,2R)-2-(2-(4-chloro-2-cyanophenyl)-5-(4-(1,1-dioxidothiomorpho-lino)phenyl)thiazol-4-yl)-N-(1-cyanocyclopropyl) cyclohexanecarbox-amide] |
| 1400 nM | 1.5 nM | N#CC1(NC(=O)[C@@H]2CCCC[C@H]2c2nc(-c3cncc(C(F)(F)F)c3)sc2-c2ccc(N3CCS(=O)(=O)CC3)cc2)CC1 [Example 88, (1R,2R)-N-(1-cyanocyclopropyl)-2-(5-(4-(1,1-dioxidothiomorpho-lino)phenyl)-2-(5-(trifluoromethyl)pyridin-3-yl)thiazol-4-yl)cyclohexane-carboxamide] |
| 1110 nM | 3.3 nM | Cc1nc(-c2nc([C@@H]3CCCC[C@H]3C(=O)NC3(C#N)CC3)c(-c3ccc(N4CCS(=O)(=O)CC4)cc3)s2)cs1 [Example 91, (1R,2R)-N-(1-cyanocyclopropyl)-2-(5-(4-(1,1-dioxidothiomorpho-lino)phenyl)-2′-methyl-[2,4′-bithiazol]-4-yl)cyclohexane-carboxamide] |
| 3330 nM | 3 nM | CC(C)(C)c1ccc(-c2nc([C@@H]3CCCC[C@H]3C(=O)NC3(C#N)CC3)c(-c3ccc(N4CCS(=O)(=O)CC4)cc3)s2)cn1 [Example 92, (1R,2R)-2-(2-(6-(tert-butyl)pyridin-3-yl)-5-(4-(1,1-dioxidothiomorpho-lino)phenyl)thiazol-4-yl)-N-(1-cyanocyclopropyl) cyclohexanecarbox-amide] |
| 1120 nM | 3.6 nM | Cc1cc(C#N)ccc1-c1nc([C@@H]2CCCC[C@H]2C(=O)NC2(C#N)CC2)c(-c2ccc(N3CCS(=O)(=O)CC3)cc2)s1 [Example 95, (1R,2R)-2-(2-(4-cyano-2-methylphenyl)-5-(4-(1,1-dioxidothiomorpho-lino)phenyl)thiazol-4-yl)-N-(1-cyanocyclopropyl) cyclohexanecarbox-amide] |
| 1920 nM | 2.1 nM | N#CC1(NC(=O)[C@@H]2CCCC[C@H]2c2nc(-c3ccnc(C(F)(F)F)c3)sc2-c2ccc(N3CCS(=O)(=O)CC3)cc2)CC1 [Example 96, (1R,2R)-N-(1-cyanocyclopropyl)-2-(5-(4-(1,1-dioxidothiomorpho-lino)phenyl)-2-(2-(trifluoromethyl)pyridin-4-yl)thiazol-4-yl)cyclohexane-carboxamide] |
| ≥ 10000 nM | 48.8 nM | CC1(C)CN(c2nc([C@@H]3CCCC[C@H]3C(=O)NC3(C#N)CC3)c(-c3ccc(N4CCS(=O)(=O)CC4)cc3)s2)CC(C)(C)O1 [Example 101, (1R,2R)-N-(1-cyanocyclopropyl)-2-(5-(4-(1,1-dioxidothiomorpho-lino)phenyl)-2-(2,2,6,6-tetramethylmorpho-lino)thiazol-4-yl)cyclohexane-carboxamide] |
| 1000 nM | 2.4 nM | N#CC1(NC(=O)[C@@H]2CCCC[C@H]2c2nc(N3CCC4(CC3)CC4)sc2-c2ccc(N3CCS(=O)(=O)CC3)cc2)CC1 [Example 102, (1R,2R)-N-(1-cyanocyclopropyl)-2-(5-(4-(1,1-dioxidothiomorpho-lino)phenyl)-2-(6-azaspiro[2.5]octan-6-yl)thiazol-4-yl)cyclohexane-carboxamide] |
| 1000 nM | 3.3 nM | N#CC1(NC(=O)[C@@H]2CCC(F)(F)C[C@H]2c2nc(-c3ccc(F)cn3)sc2-c2ccc(N3CCS(=O)(=O)CC3)cc2)CC1 [Example 107, (1R,2R)-N-(1-cyanocyclopropyl)-2-(5-(4-(1,1-dioxidothiomorpho-lino)phenyl)-2-(5-fluoropyridin-2-yl)thiazol-4-yl)-4,4-difluorocyclohexane-carboxamide] |
| 2660 nM | 2.2 nM | N#CC1(NC(=O)[C@@H]2CCC(F)(F)C[C@H]2c2nc(-c3cncc(Cl)c3)sc2-c2ccc(N3CCS(=O)(=O)CC3)cc2)CC1 [Example 115, (1R,2R)-2-(2-(5-chloropyridin-3-yl)-5-(4-(1,1-dioxidothiomorpho-lino)phenyl)thiazol-4-yl)-N-(1-cyanocyclopropyl)-4,4-difluorocyclohexane-carboxamide] |
